Data taken from publication PMC12371491 (ACS Bio & Med Chem Au, 2025).

Target: T1, dihydrofolate synthetase (DHFS) (Escherichia coli, UniProt P08192)
T1 sequence (P08192 1-422): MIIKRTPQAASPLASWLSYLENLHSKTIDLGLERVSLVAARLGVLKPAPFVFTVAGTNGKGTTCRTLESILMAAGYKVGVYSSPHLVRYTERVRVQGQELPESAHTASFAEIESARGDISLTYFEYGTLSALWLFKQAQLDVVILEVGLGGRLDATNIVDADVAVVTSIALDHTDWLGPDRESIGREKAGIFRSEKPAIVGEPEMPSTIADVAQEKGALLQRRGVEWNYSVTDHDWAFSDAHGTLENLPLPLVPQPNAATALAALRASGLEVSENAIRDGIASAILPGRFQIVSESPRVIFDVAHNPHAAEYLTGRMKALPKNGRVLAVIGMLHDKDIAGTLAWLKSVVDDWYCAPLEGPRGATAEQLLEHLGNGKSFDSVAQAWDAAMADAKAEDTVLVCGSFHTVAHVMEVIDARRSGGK
Experiment: PK/LDH-coupled steady-state kinetics and LC-MS of product
Assay type: biochemical

With `Nc1nc2c(c(=O)[nH]1)NC(CNc1ccc(C(=O)N[C@@H](CCC(=O)O)C(=O)O)cc1)CN2` (stereo partly shown) [THF] the “PK/LDH-coupled steady-state kinetics and LC-MS of product” value was “we used fully reduced THF as the substrate and assay for poly glutamylation”.
